The values below come from patent US20160045486A1, “DOPAMINE RECEPTOR LIGANDS WITH ENHANCED DURATION OF ACTION” (priority 2008, published 2016).

In experiment [1] the target is T1, Cloned human receptors D3 (CHO) (Homo sapiens, UniProt P35462).
T1 construct: expressed in transfected cells; host or cells: CHO cells
In words: Binding affinity, cloned human D3 receptor (CHO).
Description: (§1) Binding data from each assay were analyzed separately. Data were normalized by expressing the average dpm at each competitor concentration as a percentage of total binding.

Experiment [2] has as its target T2, Cloned human receptors D2L (C-6) (Homo sapiens, UniProt P14416).
T2 construct: expressed in transfected cells; host or cells: C-6 cells
Put plainly: Binding affinity, cloned human D2L receptor (C-6).
Description: as §1

The test system of experiment [3] is non-dopamine receptors (monoamine transporters, serotonin, adrenergic, hH1, muscarinic, opioid, miscellaneous receptors). Put plainly: Affinity at other receptors (10 μM screen of non-dopamine receptors and transporters). The conditions noted are these: 10 μM concentration; full dose-response only where >50% inhibition of binding.
Experiment [4] addresses T3, cloned hD1 receptors expressed in Ltk cells (Homo sapiens, UniProt P21728).
T3 construct: expressed in transfected cells; host or cells: Ltk cells
Put plainly: Dopamine D1 agonist activity, activation of adenylate cyclase. The class given is cell-based. To be noted: FIG. 2, compared to dihydrexidine. The protocol:
Studies were done in cloned hD1 receptors expressed in Ltk cells.
Frozen membranes were thawed and added to assay tubes (10 μg protein/tube) containing a prepared reaction mixture [100 mM Hepes, (pH 7.4), 100 mM NaCl, 4 mM MgCl2, 2 mM EDTA, 500 μM isobutyl methylxanthine (IBMX), 0.01% ascorbic acid, 10 μM pargyline, 2 mM ATP, 5 μM GTP, 20 mM phosphocreatine, 5 units of creatine phosphokinase (CPK), 1 μM propranolol] and selected drugs. The final reaction volume was 100 μL.
Basal cAMP activity was determined by incubation of tissue in the reaction mixture with no drug added. Tubes were assayed in duplicate and, after a 15 min incubation at 30° C., the reaction was stopped by the addition of 500 μL of 0.1 N HCl. Tubes were vortexed briefly, and then spun in a BHG HermLe Z 230 M microcentrifuge for five min at 15,000×g to precipitate particulates.
The concentration of cAMP in each sample was determined with an RIA of acetylated cAMP, modified from that previously described. Iodination of cAMP was performed using a now-published procedure (Brown et al., 2009). […] Antibody-bound radioactivity was separated by the addition of 25 μL of BioMag rabbit, anti-goat IgG (Advanced Magnetics, Cambridge Mass.), followed by vortexing and incubation at 4° C. for 1 h. […] Supernatants were aspirated and radioactivity in the pellet was determined using an LKB Wallac gamma counter (Gaithersburg, Md.). […]

Experiment [5] has as its system unilateral 6-OHDA rat model. In words: Rotation in the unilateral 6-OHDA rat model of Parkinson's disease. The class given is in vivo. The protocol: Both drugs were administered 1 mg/kg subcutaneously (SC), and the number of rotations measured (i.e., rotations counter clockwise) over time (minutes) using the model first described by
Ungerstedt (Ungerstedt and Arbuthnott, 1970).
In some studies, adult male Sprague Dawley rats (200-250 g) were obtained from Charles River Breeding Laboratories (Raleigh, N.C.) or Harlan Laboratories (Indianapolis, Ind.). Rats were killed by decapitation, and the whole brains removed and chilled briefly in ice-cold saline. Brains were sliced with the aid of a dissecting block, and central striata were then dissected from two coronal sections containing the majority of this region. Tissue was frozen immediately on dry ice and stored at −70° C. until the day of the assay. In other studies, Sprague-Dawley rats weighing between ca. 175 g received unilateral injections of 6-OHDA. They were pretreated with 25 mg/kg desipramine, anesthetized with sodium pentobarbital and placed in a stereotaxic apparatus. Thirty gauge needles were lowered into the right aspects of the substantia nigra at Interaural zero +3.2 mm; lateral −2.0 mm; and dorsoventral −7.7 mm. Four μl of 0.1% ascorbic acid in sterile saline containing 8 μg of 6-OHDA were infused in each side over a period of 20 minutes using 10 μl Hamilton syringes and a Sage syringe pump. The needles were left in place two minutes after infusion to minimize withdrawal of the 6-OHDA solution with the needles. The small burr holes in the skull were plugged with bone wax, and the wound sutured. Post-operative care of these rats included observation, sweet food supplements, and gastric intubation during the aphagic period following lesion. Fourteen or more days after the lesion, rats were challenged with 1 mg/kg apomorphine, and rotations measured. […] The rats were then allowed to “wash-out” for a week between drug trials.

The target in experiment [6] is T4, Cloned human receptors D1 (C-6).
T4 construct: C-6 glioma cells expressing the rhesus macaque D1 A receptor, (C-6-m D1 A)
In words: Binding affinity, cloned human D1 receptor (C-6). The protocol:
Cells were maintained in a humidified incubator at 37° C. with 5% CO2.

Experiment [7] concerns the target Cloned human receptors D5 (HEK) (Homo sapiens, UniProt P21918). Put plainly: biochemical.
Description: as §1
The target of experiment [8] is T5, Cloned human receptors D4 (CHO) (Homo sapiens, UniProt P21917).
T5 sequence (P21917 1-419): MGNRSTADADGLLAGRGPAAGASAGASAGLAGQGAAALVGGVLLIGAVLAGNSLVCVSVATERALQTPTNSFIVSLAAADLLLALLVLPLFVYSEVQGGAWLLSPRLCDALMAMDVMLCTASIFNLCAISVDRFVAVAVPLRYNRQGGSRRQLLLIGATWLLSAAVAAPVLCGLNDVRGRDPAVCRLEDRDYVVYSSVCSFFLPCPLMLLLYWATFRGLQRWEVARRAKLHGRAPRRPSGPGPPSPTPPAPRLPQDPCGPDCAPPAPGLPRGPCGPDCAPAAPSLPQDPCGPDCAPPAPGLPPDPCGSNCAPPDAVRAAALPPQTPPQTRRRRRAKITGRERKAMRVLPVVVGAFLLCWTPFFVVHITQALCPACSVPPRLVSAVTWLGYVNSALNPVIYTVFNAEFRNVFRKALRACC
In words: biochemical.
Description: as §1

Structures are written as SMILES. Where a name gives a salt, the structure may show the parent alone. Read-outs that look alike come from different tables or passages of the source.

T1 sequence (P35462 whole entry): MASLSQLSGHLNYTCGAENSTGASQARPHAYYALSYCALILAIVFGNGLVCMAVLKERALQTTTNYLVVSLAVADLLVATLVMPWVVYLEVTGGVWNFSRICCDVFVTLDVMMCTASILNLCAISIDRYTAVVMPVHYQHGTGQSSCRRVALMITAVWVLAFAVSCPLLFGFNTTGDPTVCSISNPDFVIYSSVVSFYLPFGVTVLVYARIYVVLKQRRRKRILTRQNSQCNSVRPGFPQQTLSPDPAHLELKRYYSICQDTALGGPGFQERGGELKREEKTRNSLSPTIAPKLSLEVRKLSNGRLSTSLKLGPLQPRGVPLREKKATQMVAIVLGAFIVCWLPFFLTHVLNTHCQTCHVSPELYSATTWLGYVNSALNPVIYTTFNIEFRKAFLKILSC
T2 sequence (P14416 whole entry): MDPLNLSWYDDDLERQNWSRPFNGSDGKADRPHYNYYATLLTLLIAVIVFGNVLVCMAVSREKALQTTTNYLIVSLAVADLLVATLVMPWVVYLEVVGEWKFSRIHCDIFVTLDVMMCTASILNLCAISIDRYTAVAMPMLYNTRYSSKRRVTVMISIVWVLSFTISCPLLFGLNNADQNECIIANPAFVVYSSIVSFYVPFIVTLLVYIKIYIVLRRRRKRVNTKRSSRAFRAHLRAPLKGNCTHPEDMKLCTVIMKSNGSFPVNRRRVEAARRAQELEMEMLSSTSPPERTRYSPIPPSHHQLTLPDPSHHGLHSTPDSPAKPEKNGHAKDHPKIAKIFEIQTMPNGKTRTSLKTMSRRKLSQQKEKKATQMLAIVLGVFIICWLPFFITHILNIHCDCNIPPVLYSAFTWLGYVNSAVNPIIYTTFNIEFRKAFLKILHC
T3 sequence (P21728 whole entry): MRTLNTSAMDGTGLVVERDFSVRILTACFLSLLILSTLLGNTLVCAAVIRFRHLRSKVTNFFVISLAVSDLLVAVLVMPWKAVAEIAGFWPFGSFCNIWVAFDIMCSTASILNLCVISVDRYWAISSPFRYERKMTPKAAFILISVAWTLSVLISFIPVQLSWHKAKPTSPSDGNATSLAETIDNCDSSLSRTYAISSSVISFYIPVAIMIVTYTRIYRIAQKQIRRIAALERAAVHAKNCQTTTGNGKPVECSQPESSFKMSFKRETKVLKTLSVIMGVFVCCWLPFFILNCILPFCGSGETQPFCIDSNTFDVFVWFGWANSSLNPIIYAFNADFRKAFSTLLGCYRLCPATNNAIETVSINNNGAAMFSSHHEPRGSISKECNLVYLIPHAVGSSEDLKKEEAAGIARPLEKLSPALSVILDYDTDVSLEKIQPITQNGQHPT
Chain of Cloned human receptors D5 (HEK) (P21918 whole entry): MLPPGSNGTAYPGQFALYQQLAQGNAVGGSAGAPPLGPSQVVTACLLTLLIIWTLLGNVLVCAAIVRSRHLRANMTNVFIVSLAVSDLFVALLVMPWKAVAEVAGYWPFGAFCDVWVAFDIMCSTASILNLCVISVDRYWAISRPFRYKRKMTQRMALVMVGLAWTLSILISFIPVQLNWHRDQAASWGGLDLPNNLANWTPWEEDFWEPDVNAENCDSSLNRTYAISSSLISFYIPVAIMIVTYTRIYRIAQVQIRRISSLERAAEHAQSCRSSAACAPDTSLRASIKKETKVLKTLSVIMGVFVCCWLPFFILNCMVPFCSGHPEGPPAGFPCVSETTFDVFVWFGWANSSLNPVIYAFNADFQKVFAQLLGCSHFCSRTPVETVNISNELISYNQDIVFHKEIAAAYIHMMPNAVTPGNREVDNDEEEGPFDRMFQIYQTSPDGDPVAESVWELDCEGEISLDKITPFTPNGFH

On to `Cc1ccc2c(c1)[C@@H]1c3cc(O)c(O)cc3CC[C@H]1NC2` (racemic) [Compound 1, Trans-2-methyl-10,11-dihydroxy-5,6,6a,7,8,12b-hexahydrobenzo[a]phenanthridine hydrochloride], for which the Ki in experiment [1] turned out to be 95 nM; in experiment [2], 525 nM; in experiment [6] (read-out: K0.5, Cloned human receptors D1 (C-6); C-6 cells) it was 8 nM; in experiment [7] it was 7 nM; in experiment [8] it was 325 nM. Moreover, in experiment [3], the “affinity for non-dopamine receptors” value is given as “little affinity for most receptors”. Further, the “agonist intrinsic activity and potency (adenylate cyclase, percentage of activation caused by 100 μM dopamine)” value in experiment [4] was “full agonist of similar intrinsic activity and potency when compared to dihydrexidine”. The “agonist effects in presence of D1 antagonist SCH23390” value in experiment [5] (SCH23390 0.3 mg/kg) is “completely blocked”. In addition, the “rotation in presence of D2 antagonist haloperidol” value in experiment [5] (haloperidol 0.1 mg/kg) is on record as “not blocked”. Besides, the “duration of activity (rotations over time)” value in experiment [5] (single subcutaneous injection of 1 mg/kg, FIG. 1) is on record as “activity lasting for nearly ten hours”.
As to `Oc1cc2c(cc1O)[C@@H]1c3ccccc3CN[C@H]1CC2` (relative stereo) [dihydrexidine, trans-10,11-dihydroxy-5,6,6a,7,8,12b-hexahydrobenzo[a]phenanthridine, reference compound], the Ki stood at 15 nM in experiment [1] (CHO cells, read-out: K0.5, Cloned human receptors D3 (CHO)) and 2.2 nM in experiment [6] (C-6 cells; read-out: K0.5, Cloned human receptors D1 (C-6)).
